Earlier results on two compounds are cited in paper PMC8036510, “The Inhibitory Effects of Plant Derivate Polyphenols on the Main Protease of SARS Coronavirus 2 and Their Structure–Activity Relationship” (Molecules, 2021).

Converted amounts (≈) assume the structure as drawn.

In data set [1] the test system is M^pro. Details: method as in PMID 33022015. The settings on record: substrate MCA-AVLQSGFR-K(Dnp)-K-NH2.
The test system of data set [2] is M^pro. Also noted: method as in PMID 32963564. To be noted: 37 °C for 5 h, same substrate.

The term IC50 denotes the concentration that inhibits the measured activity by half. As for `O=C(OC[C@H]1O[C@@H](OC(=O)c2cc(O)c(O)c(OC(=O)c3cc(O)c(O)c(O)c3)c2)[C@H](OC(=O)c2cc(O)c(O)c(OC(=O)c3cc(O)c(O)c(O)c3)c2)[C@@H](OC(=O)c2cc(O)c(O)c(OC(=O)c3cc(O)c(O)c(O)c3)c2)[C@@H]1OC(=O)c1cc(O)c(O)c(OC(=O)c2cc(O)c(O)c(O)c2)c1)c1cc(O)c(O)c(OC(=O)c2cc(O)c(O)c(O)c2)c1` [Tannic acid], the IC50 in data set [1] is 2100 nM.
`O=C(O[C@@H]1Cc2c(O)cc(O)cc2O[C@@H]1c1cc(O)c(O)c(O)c1)c1cc(O)c(O)c(O)c1` [Epigallocatechin gallate (EGCG), Epigallocatechin gallate]: the “IC50 on M^pro” value in data set [2] was 7.6 µg/mL (≈ 16.6 µM).
